Data from US6034108A, “Method for treating mental retardation” (Eli Lilly and Company, priority 1998, dated 2000).

Columns and labels:
m4 receptors = assay: cAMP formation in CHO m4 cells treated with pertussis toxin; type: cell-based
From the text: Muscarinic agonists stimulate the formation of cAMP up to 10 fold in CHO m4 cells treated with pertussisi toxin and the pharmacology is consistent with the mediation by m4 receptors. Eckols K. Soc. Neurosci Abstr., 21:2040 (1995).

[1] = biological target: T1, m2 receptors in brain stem (Rattus norvegicus, UniProt P10980); assay: 3H-guinuclidinyl benzilate binding to m2 receptors in brain stem
T1 sequence (P10980 1-466): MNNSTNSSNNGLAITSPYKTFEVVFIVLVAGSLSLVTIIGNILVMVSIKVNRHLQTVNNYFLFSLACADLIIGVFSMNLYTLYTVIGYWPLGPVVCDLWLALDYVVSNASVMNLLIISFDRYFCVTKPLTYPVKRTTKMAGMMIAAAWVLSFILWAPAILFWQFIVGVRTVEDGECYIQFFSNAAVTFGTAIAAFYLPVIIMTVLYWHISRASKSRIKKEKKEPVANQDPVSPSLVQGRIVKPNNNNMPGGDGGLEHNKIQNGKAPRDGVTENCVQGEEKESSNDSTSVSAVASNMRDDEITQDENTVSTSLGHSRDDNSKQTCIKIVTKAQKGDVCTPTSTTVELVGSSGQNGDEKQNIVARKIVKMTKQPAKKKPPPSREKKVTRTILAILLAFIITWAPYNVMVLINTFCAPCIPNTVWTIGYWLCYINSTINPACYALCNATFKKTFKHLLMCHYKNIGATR

SMILES: CCCCCCOc1nsnc1C1=CCCN(C)C1 [Xanomeline, 3-(4-hexyloxy-1,2,5-thiadiazol-3-yl)-1,2,5,6-tetrahydro-1-methylpyridine]
- stimulation of the formation of cAMP (m4 receptors): efficaciously and potently stimulated the formation of cAMP
- Ki [1]: 24 nM
